This note sets out measurements from ChEMBL document CHEMBL1201862, “PubChem BioAssay data set” (2004).

Some test systems named below: A549; ACHN; COLO 205; EKVX; HCC 2998; HCT-15; IGROV-1; K562; LOX IMVI; MDA-N; NCI-H23; NCI-H522; OVCAR-3; OVCAR-5; OVCAR-8; PC-3; SF-295; SF-539; SK-MEL-5; SNB-75.
Holding throughout (assay): NCI tumour cell line growth inhibition, 48 h

The structures appear in SMILES notation.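 In this assay, cells in 96-well plates receive the compound at five concentrations for 48 hours. Endpoints are linearly interpolated between the surrounding concentrations. GI50 is the concentration that inhibits growth by half.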 The source made the active and inactive calls. No stated cut-off is given here; in the data, active = GI50 up to about 1.1 µM and inactive = higher.

With `Cc1cccc2c(N)c3cccc(C(=O)NCCCNCCN)c3nc12`, the GI50 in the assay on A549 was 0.596 µM (active); in the assay with ACHN, 10.5 µM (inactive); in the assay with COLO 205, 6.37 µM (inactive); in the assay with EKVX, 13.8 µM (inactive); in the assay with HCC 2998 it was 4.35 µM (inactive); in the assay on HCT-15, 28.3 µM. Also, the GI50 with IGROV-1 is 4.83 µM (inactive); in the assay on K562, 12.9 µM (inactive); in the assay with LOX IMVI, 7.11 µM (inactive); in the assay with MDA-N, 13.7 µM (inactive); with NCI-H23 it was 1.01 µM (active); in the assay with NCI-H522, < 0.01 µM (active). Besides, the GI50 is 20.2 µM (inactive) in the assay with OVCAR-3; 11 µM (inactive) with OVCAR-5; 5.32 µM (inactive) in the assay with OVCAR-8; 14.3 µM (inactive) in the assay with PC-3; 4.45 µM (inactive) in the assay on SF-295; 2.17 µM (inactive) in the assay on SF-539. Also, the GI50 with SK-MEL-5 is 7.11 µM (inactive); with SNB-75, 0.946 µM (active).

As for `CN1CCN(c2c(Cl)cc(Cl)c3[nH]c4ccccc4c(=O)c23)CC1`, the GI50 in the assay with A549 is 5.56 µM (inactive); with ACHN, 2.9 µM (inactive); in the assay with COLO 205, 4.17 µM (inactive); in the assay on EKVX it was 10.5 µM (inactive); with HCC 2998, 5.66 µM (inactive); in the assay with HCT-15, 3.39 µM. The GI50 is 4.46 µM (inactive) in the assay with IGROV-1; 3.66 µM (inactive) with K562; 3.64 µM (inactive) in the assay with LOX IMVI; 8.41 µM (inactive) in the assay with MDA-N; 8.87 µM (inactive) in the assay on NCI-H23; 2.77 µM (inactive) in the assay on NCI-H522. The GI50 in the assay with OVCAR-3 was 10.2 µM (inactive); in the assay on OVCAR-5, 10.2 µM (inactive); with OVCAR-8 it was 5.07 µM (inactive); in the assay with PC-3 it was 6.38 µM (inactive); with SF-295, 5.85 µM (inactive); in the assay on SF-539 it was 3.94 µM (inactive). For the same compound, the figures for the GI50 in the assay on SK-MEL-5 and in the assay with SNB-75 were 9.71 µM (inactive) and 9.91 µM (inactive), respectively.
